Measured values reported in patent US20070086967A1, “Treatment of psoriasis with rosiglitazone” (priority 2003, published 2007).

What was measured:
Assay type in all cases: in vivo, humans
[1] = tested on: moderate to severe plaque psoriasis; assay: Phase II placebo-controlled clinical study, overall efficacy, onset of effect and patient photographs
Description: FIGS. 3, 4, 5 and 6: photographs of the back of a patient receiving 2 mg rosiglitazone at baseline and after 12 weeks, 18 weeks and follow-up (week 20).
FIGS. 7, 8 and 9: photographs of the lower leg of a patient receiving 8 mg rosiglitazone at baseline and after 12 weeks and 18 weeks.
(§1) A phase II, multi-center, randomized, double-blind, placebo-controlled study involving 186 subjects compared the safety and efficacy of three doses (2 mg, 4 mg, and 8 mg) of rosiglitazone maleate (RSG) to placebo for eighteen weeks with two weeks follow-up in the treatment of moderate to severe plaque psoriasis. This study was designed to provide an assessment of the risk to benefit profile of three dose levels of RSG in subjects with psoriasis. 186 patients were enrolled and 108 patients completed the study. All patients were in the moderate to very severe category, although of the patients starting the study only 11 were moderate and the rest were severe or very severe.
(§2) Efficacy measurements included the Lattice System Global Psoriasis Score (LS-GPS) and the Psoriasis Area and Severity Index (PASI).

[2] = tested on: moderate to severe plaque psoriasis; assay: Phase II placebo-controlled clinical study, Lattice System Global Psoriasis Score (LS-GPS); details: for Improvement by 2 categories, number of patients / Improvement by 2 categories, percentage of patients / Improvement to clear/almost clear, number of patients / Improvement to clear/almost clear, percentage of patients / Improvement to clear/almost clear/mild, number of patients / Improvement to clear/almost clear/mild, percentage of patients: LS-GPS, 18 weeks
Description: The Lattice System Global Psoriasis Score (LS-GPS) developed by Charles Ellis, M. D. is a physician's global assessment tool that provides an entire body assessment that combines total body surface area (BSA) involvement with average plaque qualities. The resulting LS-GPS is one of eight discrete values ranging from “Clear” to “Very Severe”.
According to the LS-GPS score the definitions are: Clear • 0% Body Surface Area (BSA) and no elevation, erythema or scale. Almost Clear: • 1-3% BSA, mild elevation, erythema or scale; or • 4-9% BSA, mild erythema or mild scale Mild: • 1-3% BSA, moderate or marked elevation, erythema or scale; or • 4-9% BSA, mild elevation or moderate erythema or moderate scale; or • 10-20% BSA, mild erythema or mild/moderate scale Mild to Moderate: • 4-9% BSA, moderate elevation or marked scale; or • 10-20% BSA, moderate erythema; or • 21-29% BSA, mild erythema or mild/moderate scale Moderate: • 4-9% BSA, marked elevation or marked erythema; or • 10-20% BSA, mild elevation; or • 30-50% BSA, mild erythema or mild scale Moderate to Severe: • 10-20% BSA, moderate elevation or marked scale; or • 21-29% mild elevation or moderate erythema; or • 51+% BSA, mild erythema or mild scale Severe: • 10-20% BSA, marked elevation or marked erythema; or • 21-29% BSA, moderate/marked elevation or marked erythema or marked scale; or • 30-50% BSA, mild elevation or moderate erythema or moderate scale Very Severe: • 30-50% BSA, moderate/marked elevation or marked erythema or marked scale; or • 51+% BSA, any elevation or moderate/marked erythema or moderate/marked scale.
as §1, §2
“Observed” refers to data on patients who completed the trial. “LOCF” (last observation carried forward) includes data on patients who withdrew from the trial for some reason and includes their last observation in the data. The percentage is out of the total number of initial participants in the trial.

subjects with psoriasis = assay: Phase II placebo-controlled clinical study, safety
Description: as §1

[3] = tested on: moderate to severe plaque psoriasis; assay: Phase II placebo-controlled clinical study, Psoriasis Area and Severity Index (PASI)
Description: The Psoriasis Area Severity Index (PASI) score was developed by Fredeniksson and Petersson in 1978 ( Frederiksson T and Petersson U. Severe psoriasis-oral therapy with a new retinoid. Dermatologica. 1978;157:238-44). According to our preferred method of determining the PASI score,four main body areas are assessed: the head (h), the upper extremities (u) the trunk (t), and lower extremities (l) corresponding to 10; 20, 30 and 40% of the total body surface area, respectively. The buttocks are counted as part of the legs, the axilla and groin count as part of the trunk and the neck as part of the head. The area of psoriatic involvement of these four main areas (Ah, At, Au, Al) is given a numeric score for the percent involved by psoriasis: 1=1-9%; 2=10-29%; 3=30-49%; 4=50-69%; 5=70-89% and 6=90-100%. In order to evaluate the severity of the psoriatic lesions three target symptoms, erythema (E), thickness/indurabon (I), and desquamation/scaling (D) will be assessed according to a scale of 0-4, where 4 represents the severest possible involvement. In the case of i.e., erythema, 0=No symptoms; 1=slight erythema, 2=moderate erythema; 3=marked erythema, and 4=very marked erythema. The PASI score (0-72) is then calculated, from the following formula: […]
The PASI score varies in steps of 0.1 units from 0.0 to 72.0. Higher PASI scores indicate higher degrees of severity. The last mentioned score represents complete erythema of the severest possible degree, while 0.0 means no psoriatic lesions at all. Generally severe psoriasis is defined by a PASI score of 20 or more.
as §1, §2

[4] = Observed (completers), 2 mg oral daily
[5] = Observed (completers), 4 mg oral daily
[6] = Observed (completers), 8 mg oral daily
[7] = Week 12, 2 mg and 8 mg groups compared to placebo
[8] = 18 weeks of oral, daily treatment, 2, 4, 8 mg

CN(CCOc1ccc(CC2SC(=O)NC2=O)cc1)c1ccccn1 (stereo not drawn) [RSG, 5-[4-[2-(N-methyl-N-(2-pyridyl)amino)ethoxy]benzyl]thiazolidine-2,4-dione]
efficacy results versus placebo ([1]; 4 mg group, high dropout rate (24/44)): did not separate appreciably from placebo
clinical effects ([1]; Week 12 and Week 18, 2 mg and 8 mg treatment groups): Clinically meaningful effects
efficacy in photographs of a patient's back (FIGS. 3-6) ([1]; one patient on 2 mg, baseline, 12 weeks, 18 weeks, follow-up week 20): good efficacy
efficacy in photographs of a patient's lower leg (FIGS. 7-9) ([1]; one patient on 8 mg, baseline, 12 weeks, 18 weeks): good efficacy
onset of action according to most measures ([1]; oral, 2 to 8 mg/day): around 2 weeks
onset of activity ([1]; oral, 2 to 8 mg/day): 6-8 weeks
time to noticeably beneficial effects ([1]; oral, 2 to 8 mg/day): 12-18 weeks
time of peak effect (other endpoints) ([1]; study only 18 weeks, peak efficacy may not have been observed): 18 weeks
LS-GPS results (FIG. 1, percentage of completed patients clear, almost clear or mild) ([2]; 8 mg group at 18 weeks): particularly good
Improvement by 2 categories, number of patients ([2]; LOCF, 2 mg oral daily): 12
Improvement by 2 categories, percentage of patients ([2]; LOCF, 2 mg oral daily): 24%
Improvement to clear/almost clear, number of patients ([2]; LOCF, 2 mg oral daily): 2
Improvement to clear/almost clear, percentage of patients ([2]; LOCF, 2 mg oral daily): 4%
Improvement to clear/almost clear/mild, number of patients ([2]; LOCF, 2 mg oral daily): 5
Improvement to clear/almost clear/mild, percentage of patients ([2]; LOCF, 2 mg oral daily): 10%
Improvement by 2 categories, number of patients ([2]; LOCF, 4 mg oral daily): 6
Improvement by 2 categories, percentage of patients ([2]; LOCF, 4 mg oral daily): 14%
Improvement to clear/almost clear, number of patients ([2]; LOCF, 4 mg oral daily): 1
Improvement to clear/almost clear, percentage of patients ([2]; LOCF, 4 mg oral daily): 2%
Improvement to clear/almost clear/mild, number of patients ([2]; LOCF, 4 mg oral daily): 4
Improvement to clear/almost clear/mild, percentage of patients ([2]; LOCF, 4 mg oral daily): 9%
Improvement by 2 categories, number of patients ([2]; LOCF, 8 mg oral daily): 11
Improvement by 2 categories, percentage of patients ([2]; LOCF, 8 mg oral daily): 25%
Improvement to clear/almost clear, number of patients ([2]; LOCF, 8 mg oral daily): 3
Improvement to clear/almost clear, percentage of patients ([2]; LOCF, 8 mg oral daily): 7%
Improvement to clear/almost clear/mild, number of patients ([2]; LOCF, 8 mg oral daily): 11
Improvement to clear/almost clear/mild, percentage of patients ([2]; LOCF, 8 mg oral daily): 25%
Improvement by 2 categories, number of patients [2, 4]: 11
Improvement by 2 categories, percentage of patients [2, 4]: 28%
Improvement to clear/almost clear, number of patients [2, 4]: 2
Improvement to clear/almost clear, percentage of patients [2, 4]: 5%
Improvement to clear/almost clear/mild, number of patients [2, 4]: 5
Improvement to clear/almost clear/mild, percentage of patients [2, 4]: 13%
Improvement by 2 categories, number of patients [2, 5]: 4
Improvement by 2 categories, percentage of patients [2, 5]: 20%
Improvement to clear/almost clear, number of patients [2, 5]: 1
Improvement to clear/almost clear, percentage of patients [2, 5]: 5%
Improvement to clear/almost clear/mild, number of patients [2, 5]: 2
Improvement to clear/almost clear/mild, percentage of patients [2, 5]: 10%
Improvement by 2 categories, number of patients [2, 6]: 10
Improvement by 2 categories, percentage of patients [2, 6]: 37%
Improvement to clear/almost clear, number of patients [2, 6]: 3
Improvement to clear/almost clear, percentage of patients [2, 6]: 11%
Improvement to clear/almost clear/mild, number of patients [2, 6]: 10
Improvement to clear/almost clear/mild, percentage of patients [2, 6]: 37%
LS-GPS summary [2, 7]: improvements
subjects who achieved Clear/Almost Clear in the LS-GPS (primary endpoint) ([2]; Week 12, in each of the RSG groups (2 mg, 4 mg, 8 mg), none in placebo): one
distribution of the LS-GPS ([2]; Week 18, 2 mg group): statistically significant
other LS-GPS endpoints ([2]; Week 18, 8 mg dose): comparable efficacy with the 2 mg dose
odds for successful treatment (Clear/Almost Clear/Mild LS-GPS) relative to placebo group ([2]; Week 18, 8 mg group): ~5 times
proportion of subjects who achieved Clear/Almost Clear/Mild, significance ([2]; Week 18, 8 mg group vs placebo): achieved statistical significance
subjects who achieved an improvement of Clear/Almost Clear ([2]; Week 18, all RSG groups together, none on placebo): six
safety findings (subjects with psoriasis; [8]): no unexpected safety findings
safety profile (subjects with psoriasis; [8]): comparable across treatment groups
adverse events (subjects with psoriasis; all doses): comparable with placebo
tolerability (subjects with psoriasis; all doses): well tolerated
PASI results (FIG. 2, change from baseline, LOCF) ([3]; 2 and 8 mg group at 12 weeks): particularly good
mean percent change in PASI ([3]; Week 12, 2 mg and 8 mg group): statistically significant
proportion of subjects who achieved a 50% improvement according the PASI [3, 7]: improvements
proportion of subjects who achieved a 75% improvement according the PASI [3, 7]: improvements
PASI mean percent change ([3]; Week 18, 2 mg group): statistically significant
other PASI endpoints ([3]; Week 18, 8 mg dose): comparable efficacy with the 2 mg dose
improvements in mean percent change in PASI total scores during follow-up period ([3]; two weeks follow-up after 18 weeks of treatment, all treatment groups): maintained
